Here are results for two molecules from patent US20100144712A1 (priority 2007, published 2010).

Converted amounts (≈) assume the structure as drawn. Where two headings read alike, the source gives them in different places. Bounds are passed on as bounds.

Common to all, as to type: cell-based
For test [1], the system named is Aspergillus niger ATCC 9142. Kind of test: In vitro antifungal activity (MIC80), Aspergillus niger ATCC 9142. To be noted: Aspergillus niger, ATCC9142; Table 3, ATCC 9142; read-out: Minimal inhibitory concentration (MIC80). How it is done: (§1) In vitro antifungal activities of the inventive antifungal compounds were evaluated using test strains including Candida albican (ATCC 90873, 204276, 62342, 64124, 64550, 96901, MYA-573, MYA-574, MYA-575, MYA-576, MYA-1003) and Aspergillus fumigatus (ATCC 16424). Test samples and positive control samples were prepared by dissolving the inventive compounds and comparative compounds, i.e., amphotericin B, fluconazole and itraconazole, in DMSO, respectively, and each successively diluted with medium to obtain test and positive control solutions having test compound concentrations of 0.125 μg/ml to a maximum concentration not generating turbidity. Minimal inhibitory concentration (MIC80) of each compound was determined as the lowest concentration of the test compounds required to reduce growth by 80% relative to a control strain not treated.
(§2) 3) Preparation of test samples: the inventive compounds and comparative compounds were each diluted with DMSO to obtain 1 to 2 ml of a test sample in a concentration of 100-folds of the determining maximum concentration (256 μg/ml).
(§3) The test samples were each successively diluted with RPMI 1640 to obtain test solutions having concentrations of […] in a 12×75 mm sterilized disposable culture tube. The final concentration of DMSO was adjusted to […] (v/v).
(§4) Candida albican strains were each subcultured in Sabourad Dextrose Agar, YM Agar or Potato Dextrose Agar medium at 35° C. for 2˜3 days. In the case of yeasts, a single colony was taken from prominent colonies and suspended in 0.85% sterile physiological saline solution and the turbidity of the suspension was adjusted to 80˜82% at 530 nm, and then diluted 50-fold with RPMI 1640 medium to 1.0×10^3˜5.0×10^3 CFU/ml. The turbidity of fungi was adjusted to 80˜82% and the suspension was diluted 50-fold to […]. Aspergillus fumigatus strains were subcultured in Malt Extract Agar for 7˜10 days, and a single colony was taken from prominent colonies and suspended in 0.85% sterile physiological saline solution and the suspension was adjusted to 0.108 at 530 nm, and then diluted 1000-fold with RPMI 1640 medium to 0.4×10^2˜5×10^4 CFU/ml. The turbidity of fungi was adjusted to 80˜82% and the suspension was diluted 50-fold to 0.4102˜0.5104 CFU/ml.
(§5) The strain solutions thus obtained were each seeded into a sterilized 96-well microplate, 0.1 ml of each test solution were added thereto, and […] of alamarblue was treated to each well (Biosource, #DAL1100). This procedure was repeated 2 times.
(§6) Minimal inhibitory concentration (MIC80) of each compound was determined as the lowest concentration of the test compounds required to reduce growth by 80% relative to a control strain not treated.
(§7) MIC80 of each of the compounds of which antifungal activities can be confirmed by Table 2 was determined using other test strains, i.e., Aspergillus fumigatus ATCC 16424 and MYA-1163, Aspergillus terreus ATCC 28301, Aspergillus flavus ATCC MYA-1004, and Aspergillus niger ATCC 9142.

In test [2] the test system is Candida albican ATCC MYA-575. Kind of test: In vitro antifungal activity (MIC80), Candida albican ATCC MYA-575. To be noted: Candida; Table 2, MYA 575; read-out: Minimal inhibitory concentration (MIC80). A digest of the protocol:
(§8)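 MIC80 is the lowest concentration that cuts growth by 80% compared with untreated cells, with alamarBlue as the growth read-out. Compounds were serially diluted in RPMI 1640 (0.25–256 […]; DMSO 2% v/v final) and added to 1.0×10^3–5.0×10^3 CFU/ml yeast suspensions, in duplicate runs.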

Test [3] deals with Candida albican ATCC 64124. Kind of test: In vitro antifungal activity (MIC80), Candida albican ATCC 64124. To be noted: Candida, ATCC64124; Table 2, 64124; read-out: Minimal inhibitory concentration (MIC80). A digest of the protocol:
as §8

Test [4] relates to Candida albican ATCC MYA-574. Kind of test: In vitro antifungal activity (MIC80), Candida albican ATCC MYA-574. To be noted: Candida; Table 2, MYA 574; read-out: Minimal inhibitory concentration (MIC80). In short, it runs like this:
as §8

The subject of test [5] is Aspergillus flavus ATCC MYA-1004. Kind of test: In vitro antifungal activity (MIC80), Aspergillus flavus ATCC MYA-1004. To be noted: Aspergillus flavus; Table 3, MYA-1004; read-out: Minimal inhibitory concentration (MIC80). As for the experimental part:
as §1, §2, §3, §4, §5, §6, §7

In test [6] the test system is Candida albican ATCC MYA-1003. Kind of test: In vitro antifungal activity (MIC80), Candida albican ATCC MYA-1003. To be noted: Candida; Table 2, MYA 1003; read-out: Minimal inhibitory concentration (MIC80). A digest of the protocol: as §8
In test [7] the test system is Aspergillus fumigatus (ATCC 16424). Kind of test: In vitro antifungal activity (MIC80), Aspergillus fumigatus ATCC 16424. To be noted: Aspergillus fumigatus, read-out: Minimal inhibitory concentration (MIC80). A digest of the protocol:
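Broth dilution in RPMI 1640 with 2% (v/v) final DMSO; A. fumigatus inoculum from Malt Extract Agar subculture diluted 1000-fold to 0.4×10^2˜5×10^4 CFU/ml, alamarblue added, repeated 2 times. MIC80 is lowest concentration reducing growth 80% versus untreated control.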

Test [8] has as its system Aspergillus terreus ATCC 28301. Kind of test: In vitro antifungal activity (MIC80), Aspergillus terreus ATCC 28301. To be noted: Aspergillus terreus, ATCC28301; Table 3, ATCC 28301; read-out: Minimal inhibitory concentration (MIC80). How it is done:
as §1, §2, §3, §4, §5, §6, §7

In test [9] the test system is Candida albican ATCC MYA-573. Kind of test: In vitro antifungal activity (MIC80), Candida albican ATCC MYA-573. To be noted: Candida; Table 2, MYA 573; read-out: Minimal inhibitory concentration (MIC80). A digest of the protocol: as §8
Test [10] deals with Candida albican ATCC 64550. Kind of test: In vitro antifungal activity (MIC80), Candida albican ATCC 64550. To be noted: Candida, ATCC64550; Table 2, 64550; read-out: Minimal inhibitory concentration (MIC80). A digest of the protocol:
as §8

Test [11] deals with Candida albican ATCC 96901. Kind of test: In vitro antifungal activity (MIC80), Candida albican ATCC 96901. To be noted: Candida, ATCC96901; Table 2, ATCC 96901; read-out: Minimal inhibitory concentration (MIC80). A digest of the protocol: as §8
In test [12] the test system is Candida albican ATCC 90873. Kind of test: In vitro antifungal activity (MIC80), Candida albican ATCC 90873. To be noted: Candida, ATCC90873; Table 2, ATCC 90873; read-out: Minimal inhibitory concentration (MIC80). A digest of the protocol:
as §8

Test [13] concerns Candida albican ATCC MYA-576. Kind of test: In vitro antifungal activity (MIC80), Candida albican ATCC MYA-576. To be noted: Candida; Table 2, MYA 576; read-out: Minimal inhibitory concentration (MIC80). In short, it runs like this: as §8
Test [14] relates to Candida albican ATCC 62342. Kind of test: In vitro antifungal activity (MIC80), Candida albican ATCC 62342. To be noted: Candida, ATCC62342; Table 2, 62342; read-out: Minimal inhibitory concentration (MIC80). A digest of the protocol: as §8
For test [15], the system named is Aspergillus fumigatus MYA-1163. Kind of test: In vitro antifungal activity (MIC80), Aspergillus fumigatus MYA-1163. To be noted: Aspergillus fumigatus, MYA1163; Table 3, MYA-1163; read-out: Minimal inhibitory concentration (MIC80). How it is done:
as §1, §2, §3, §4, §5, §6, §7

With `C[C@@H](N1CCN(c2nc3ccc(Cl)cc3o2)CC1)[C@](O)(Cn1cncn1)c1ccc(F)cc1F` [Example 6, (2R,3R)-3-(4-(6-chlorobenzooxazol-2-yl)piperazin-1-yl)-2-(2,4-difluorophenyl)-1-(1H-1,2,4-triazol-1-yl)butan-2-ol], the MIC80 in test [1] was 1 µg/mL (≈ 2.05 µM); in [2], 0.125 µg/mL (≈ 0.256 µM); in [3], 4 µg/mL (≈ 8.18 µM); in test [4] it was 0.25 µg/mL (≈ 0.511 µM); in test [5], 0.25 µg/mL (≈ 0.511 µM); in test [6], above 128 µg/mL. The MIC80 in [7] (ATCC16424, Table 2, ATCC 16424) was 0.125 µg/mL (≈ 0.256 µM); in [7] (ATCC16424, Table 3, ATCC 16424) it was 0.125 µg/mL (≈ 0.256 µM); in test [8], 0.5 µg/mL (≈ 1.02 µM); in test [9], 0.25 µg/mL (≈ 0.511 µM); in [10] it was 0.5 µg/mL (≈ 1.02 µM); in test [11] it was 2 µg/mL (≈ 4.09 µM). Besides, the MIC80 in [12] turned out to be 0.125 µg/mL (≈ 0.256 µM); in test [13], 0.125 µg/mL (≈ 0.256 µM); in [14], 0.25 µg/mL (≈ 0.511 µM); in test [15] it was 0.25 µg/mL (≈ 0.511 µM).

For the molecule `C[C@@H](N1CCN(c2nc3ccc(Cl)cc3s2)CC1)[C@](O)(Cn1cncn1)c1ccc(F)cc1F` [Example 4, (2R,3R)-3-(4-(6-chlorobenzothiazol-2-yl)piperazin-1-yl)-2-(2,4-difluorophenyl)-1-(1H-1,2,4-triazol-1-yl)butan-2-ol], the MIC80 in [1] is 2 µg/mL (≈ 3.96 µM); in test [2] it was 0.125 µg/mL (≈ 0.248 µM); in [3], 8 µg/mL (≈ 15.8 µM); in [4], 0.25 µg/mL (≈ 0.495 µM); in [5], 1 µg/mL (≈ 1.98 µM); in [6] it was above 128 µg/mL. Besides, the MIC80 in test [7] (ATCC16424, Table 2, ATCC 16424) was determined as 0.5 µg/mL (≈ 0.99 µM); in test [7] (ATCC16424, Table 3, ATCC 16424), 0.5 µg/mL (≈ 0.99 µM); in [8] it was 1 µg/mL (≈ 1.98 µM); in test [9], 0.125 µg/mL (≈ 0.248 µM); in test [10] it was 0.5 µg/mL (≈ 0.99 µM); in test [11] it was 2 µg/mL (≈ 3.96 µM). Moreover, the MIC80 in test [12] was 0.125 µg/mL (≈ 0.248 µM); in [13] it was 0.125 µg/mL (≈ 0.248 µM); in test [14] it was 0.125 µg/mL (≈ 0.248 µM); in [15] it was 1 µg/mL (≈ 1.98 µM).
